The source of these data is ChEMBL document CHEMBL1155854, “Conformationally constrained farnesoid X receptor (FXR) agonists: Naphthoic acid-based analogs of GW 4064” (Bioorg Med Chem Lett, 2008).

One data set concerns the target Cytochrome P450 3A4 (Homo sapiens, UniProt P08684). The experiment in a line: Inhibition of CYP3A4 in pooled human liver microsome using midazolam substrate. The data set is classed as ADME, microsomes. For orientation: Liver microsomes are vesicles of endoplasmic reticulum, rich in cytochrome P450 enzymes.
The nature of data set [1]: Oral bioavailability in rat at 30 mg/kg. Type of data set: ADME, organism-based. To be noted: in vivo.
Data set [2] is described as follows: Oral bioavailability in Beagle dog at 5 mg/kg. Conditions: in vivo. The data set is classed as ADME, organism-based, Canis lupus familiaris.
The test system of data set [3] is Rattus norvegicus. The data set can be described thus: Reduction of serum alkaline phosphatase level in alpha-naphthyl-isothiocyanate-induced rat acute cholestasis model at 100 to 300 mg/kg, po bid for 4 days dosed before 2 days induction by alpha-naphthyl-isothiocyanate. Type of data set: functional, organism-based.
Data set [4] concerns Rattus norvegicus. The experiment in a line: Reduction of serum alanine aminotransferase level in alpha-naphthyl-isothiocyanate-induced rat acute cholestasis model at 100 to 300 mg/kg, po bid for 4 days dosed before 2 days induction by alpha-naphthyl-isothiocyanate. The data set is classed as functional, organism-based.
Data set [5] relates to Rattus norvegicus. The experiment in a line: Reduction of serum aspartate aminotransferase level in alpha-naphthyl-isothiocyanate-induced rat acute cholestasis model at 100 to 300 mg/kg, po bid for 4 days dosed before 2 days induction by alpha-naphthyl-isothiocyanate. The data set is classed as functional, organism-based.
The target of data set [6] is T1, Oxysterols receptor LXR-beta (Homo sapiens, UniProt P55055).
T1 sequence (P55055 whole entry): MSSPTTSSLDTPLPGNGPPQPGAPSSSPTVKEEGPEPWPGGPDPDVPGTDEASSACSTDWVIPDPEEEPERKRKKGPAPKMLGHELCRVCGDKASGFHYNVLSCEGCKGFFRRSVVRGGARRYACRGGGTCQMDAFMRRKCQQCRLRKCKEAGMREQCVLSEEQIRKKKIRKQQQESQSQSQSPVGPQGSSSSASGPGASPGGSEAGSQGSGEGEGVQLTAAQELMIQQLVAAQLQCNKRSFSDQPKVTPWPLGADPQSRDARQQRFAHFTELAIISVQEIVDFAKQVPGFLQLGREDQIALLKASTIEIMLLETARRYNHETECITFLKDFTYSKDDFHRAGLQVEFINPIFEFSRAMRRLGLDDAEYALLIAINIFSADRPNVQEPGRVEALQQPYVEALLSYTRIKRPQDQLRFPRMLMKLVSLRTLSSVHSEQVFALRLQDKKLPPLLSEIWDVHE
The experiment in a line: Agonist activity at LXRbeta by transient transfection assay. Type of data set: functional.

The target of a further data set is T2, Estrogen receptor (Homo sapiens, UniProt P03372).
T2 sequence (P03372 whole entry): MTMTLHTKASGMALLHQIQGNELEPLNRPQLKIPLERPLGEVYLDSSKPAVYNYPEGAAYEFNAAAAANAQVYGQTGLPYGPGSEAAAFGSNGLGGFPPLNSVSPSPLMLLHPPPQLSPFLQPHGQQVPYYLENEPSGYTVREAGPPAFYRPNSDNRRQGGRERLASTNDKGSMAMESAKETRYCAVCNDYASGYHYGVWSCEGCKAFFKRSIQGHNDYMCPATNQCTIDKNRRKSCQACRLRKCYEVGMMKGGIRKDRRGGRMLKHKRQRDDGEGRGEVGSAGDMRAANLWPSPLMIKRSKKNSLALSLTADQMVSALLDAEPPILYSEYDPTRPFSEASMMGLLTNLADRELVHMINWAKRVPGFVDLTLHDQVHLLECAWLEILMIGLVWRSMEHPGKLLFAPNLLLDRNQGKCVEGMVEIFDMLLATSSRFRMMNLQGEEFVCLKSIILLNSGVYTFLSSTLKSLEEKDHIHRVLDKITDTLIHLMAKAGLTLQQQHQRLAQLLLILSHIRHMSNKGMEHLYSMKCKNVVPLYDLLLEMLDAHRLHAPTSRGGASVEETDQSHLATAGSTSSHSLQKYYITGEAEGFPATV
The experiment in a line: Agonist activity at ERalpha by fluorescence polarization assay. The data set is classed as functional. (In general: In fluorescence polarisation assays a small probe gives low polarisation when free and higher when bound to something large.)

The target in data set [7] is T3, Peroxisome proliferator-activated receptor alpha (Homo sapiens, UniProt Q07869).
T3 sequence (Q07869 whole entry): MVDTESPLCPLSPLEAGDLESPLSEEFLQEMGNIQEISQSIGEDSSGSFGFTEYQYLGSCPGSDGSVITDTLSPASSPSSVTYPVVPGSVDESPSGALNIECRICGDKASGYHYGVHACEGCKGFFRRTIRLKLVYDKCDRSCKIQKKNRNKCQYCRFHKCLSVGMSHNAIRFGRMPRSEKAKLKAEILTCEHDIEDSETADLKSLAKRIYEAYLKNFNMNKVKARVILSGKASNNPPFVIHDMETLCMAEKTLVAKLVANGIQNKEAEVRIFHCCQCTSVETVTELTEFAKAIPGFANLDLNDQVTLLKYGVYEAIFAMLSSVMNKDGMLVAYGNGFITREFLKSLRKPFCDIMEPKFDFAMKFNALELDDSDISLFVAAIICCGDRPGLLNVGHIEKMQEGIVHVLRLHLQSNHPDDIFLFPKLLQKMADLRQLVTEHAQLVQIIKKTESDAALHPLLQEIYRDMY
The data set can be described thus: Agonist activity at PPARalpha by SPA assay. The data set is classed as functional.

Data set [8] deals with T4, Peroxisome proliferator-activated receptor delta (Homo sapiens, UniProt Q03181).
T4 sequence (Q03181 whole entry): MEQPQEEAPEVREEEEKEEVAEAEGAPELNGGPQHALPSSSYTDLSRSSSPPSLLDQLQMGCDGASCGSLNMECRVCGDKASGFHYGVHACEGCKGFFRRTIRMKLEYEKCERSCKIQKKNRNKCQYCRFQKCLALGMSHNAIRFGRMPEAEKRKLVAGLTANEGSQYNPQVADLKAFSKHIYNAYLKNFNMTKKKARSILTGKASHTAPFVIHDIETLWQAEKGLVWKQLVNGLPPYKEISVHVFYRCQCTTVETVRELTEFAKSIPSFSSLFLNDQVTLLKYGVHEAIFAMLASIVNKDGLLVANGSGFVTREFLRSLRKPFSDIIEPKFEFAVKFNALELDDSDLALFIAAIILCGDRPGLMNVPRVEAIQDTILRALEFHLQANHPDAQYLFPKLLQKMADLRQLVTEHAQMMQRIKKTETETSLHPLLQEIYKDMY
The data set can be described thus: Agonist activity at PPARdelta by transient transfection assay. Type of data set: functional.

Data set [9] concerns Rattus norvegicus. The data set can be described thus: Reduction of serum HDLC level in alpha-naphthyl-isothiocyanate-induced rat acute cholestasis model at 100 to 300 mg/kg, po bid for 4 days dosed before 2 days induction by alpha-naphthyl-isothiocyanate. Type of data set: functional, organism-based.
The subject of data set [10] is Rattus norvegicus. The data set can be described thus: Reduction of serum bile acids level in alpha-naphthyl-isothiocyanate-induced rat acute cholestasis model at 100 to 300 mg/kg, po bid for 4 days dosed before 2 days induction by alpha-naphthyl-isothiocyanate. The data set is classed as functional, organism-based.
The nature of data set [11]: Selectivity for FXR over PXR.

The source made the active and inactive calls. No cut-off for these calls is given here.

Chain of Cytochrome P450 3A4 (P08684 whole entry): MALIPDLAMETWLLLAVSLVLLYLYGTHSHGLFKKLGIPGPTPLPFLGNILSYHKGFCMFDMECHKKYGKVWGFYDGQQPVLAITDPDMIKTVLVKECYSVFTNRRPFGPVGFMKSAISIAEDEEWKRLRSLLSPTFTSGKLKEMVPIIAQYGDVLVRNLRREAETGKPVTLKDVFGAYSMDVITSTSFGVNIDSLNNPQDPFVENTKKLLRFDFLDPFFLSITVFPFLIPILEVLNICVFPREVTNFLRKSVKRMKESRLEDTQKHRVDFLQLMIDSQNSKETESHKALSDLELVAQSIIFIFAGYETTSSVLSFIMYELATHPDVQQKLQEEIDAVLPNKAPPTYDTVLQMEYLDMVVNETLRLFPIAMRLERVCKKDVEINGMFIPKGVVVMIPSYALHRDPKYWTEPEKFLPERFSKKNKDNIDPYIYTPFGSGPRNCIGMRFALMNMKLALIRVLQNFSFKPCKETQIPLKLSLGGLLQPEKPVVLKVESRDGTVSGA

One may read the IC50 as the concentration that inhibits the measured activity by half. A lower IC50 goes with greater potency. What is called bioavailability is the share of a dose that reaches the circulation, judged against a reference dose that is usually intravenous. Higher therefore signals good availability. Compound `CC(C)c1onc(-c2c(Cl)cccc2Cl)c1COc1ccc(-c2ccc3c(C(=O)O)cccc3c2)cc1` displayed a half-inhibitory concentration (IC50) at Cytochrome P450 3A4 of 7.2 µM. In addition, the bioavailability came to 7.7% in [1] and 56% in [2]. For the same compound, the result in the data set on Rattus norvegicus [3], in the data set on Rattus norvegicus [4], in the data set on Rattus norvegicus [5], with Rattus norvegicus [9] and in the data set with Rattus norvegicus [10] was Active. For the same compound, the XC50 in [6] was > 20 µM; at Estrogen receptor, > 20 µM; in data set [7], > 10 µM; in data set [8] it was > 10 µM. Further, the Selectivity ratio in data set [11] was 35.
